Common to all, as to test: inhibition of tumour cell growth, NCI panel, 48 h
Test [1] deals with ACHN renal.
The subject of test [2] is DU-145 prostate.
Test [3] concerns EKVX NSCLC.
Test [4] relates to HOP-62 NSCLC.
For test [5], the system named is HOP-92 NSCLC.
The subject of test [6] is LOX IMVI melanoma.
Test [7] relates to NCI/ADR-RES ovarian.
Test [8] relates to RXF 393 renal.
The test system of test [9] is SK-MEL-2 melanoma.
In test [10] the test system is UO-31 renal.

“And” between values parts separate entries of the source, which are not always exact repeats. Identical values can stand only once.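 Compound exposure: 48 hours, 5 concentrations, 96-well plates. Abbreviation: GI50, concentration required for 50% inhibition of growth. TGI is the concentration that stops growth completely.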

As for `Cc1ccc(C)c2c1C(=O)N(c1ccc(F)cc1F)C2=O`, the GI50 was over 100 µM in test [1]; over 100 µM in [2]; over 100 µM in test [3]; over 100 µM in test [4]; 1.11 µM in test [5]; over 100 µM in [6]. In addition, the GI50 in test [7], in [8], in [9] and in test [10] was over 100 µM each time. Moreover, the TGI in test [1], in test [2], in [3], in [4], in test [5] and in test [6] was over 100 µM each time. Also, the TGI in test [7], in test [8], in test [9] and in [10] was over 100 µM each time.

Take `O=C(Cn1c(C(=O)c2ccc(Cl)cc2)nc(-c2ccc(Cl)cc2)c1-c1ccc(Cl)cc1)c1ccccc1`: the GI50 in [1] was over 100 µM; in test [2], over 100 µM; in test [3], over 100 µM; in [4], over 100 µM; in [5] it was 12.9 µM; in [6], over 100 µM. In addition, the GI50 in test [7], in test [8], in [9] and in test [10] was over 100 µM each time. For the same compound, the TGI in test [1], in [2], in [3], in [4], in [5] and in test [6] was over 100 µM each time. The TGI in [7], in test [8], in [9] and in test [10] was over 100 µM throughout.

As for `CC1=C/C=C/C(=O)O[C@@H]([C@H](C)[C@H](O)[C@@H](C)NC(=O)C(C)C)[C@H](C)/C=C/C(C)=C/[C@H]2C=CCC[C@@]2(C)\C=C\1`, the GI50 in test [1] is 0.136 µM; in test [2], 4.64 µM and 0.652 µM; in test [3] it was 1.65 µM and 3.94 µM; in [4], 2.13 µM and 4.68 µM; in test [5], 0.059 µM and 0.0545 µM; in [6] it was 0.0479 µM and 0.0688 µM. The GI50 was 1.43 µM and 0.879 µM in test [7]; 6.98 µM in test [9]; 0.244 µM and 0.396 µM in [10]. For the same compound, the TGI in [1] is 6.98 µM; in test [2], 8.98 µM; in test [3], 25.1 µM; in [4] it was 12.5 µM; in test [5] it was 6.5 µM; in [6] it was 0.307 µM and 0.178 µM. For the same compound, the TGI in [7] is 27.6 µM; in test [8], 8.69 µM; in [9] it was 20.4 µM; in test [10] it was 7.85 µM.

For `CCc1ccccc1NC(=O)C(C#N)C1=C(Cl)C(=O)c2ccccc2C1=O` (centres undefined), the TGI in test [1] was 29.9 µM; in [2] it was 32.2 µM; in [3], 33.7 µM; in test [4], 43.4 µM; in test [5] it was over 100 µM; in test [6], 26.9 µM. The TGI in [7] turned out to be 34.2 µM; in [8], 43.1 µM; in test [9] it was 37.2 µM; in [10], 26.6 µM.

On to `Oc1cc(N2CC2)c(O)cc1N1CC1`, for which the GI50 in test [1] was 0.219 µM; in test [2] it was 0.254 µM; in [3], 2.62 µM; in test [4], 0.632 µM; in [5], 2.33 µM; in [6], 0.322 µM. For the same compound, the GI50 in test [7] is 0.961 µM; in [8], 0.358 µM; in test [9], 1.46 µM; in test [10], 0.164 µM. Besides, the TGI in test [1] amounted to 0.59 µM; in [2], 1.37 µM; in test [3], 9.87 µM; in test [4], 2.99 µM; in test [5] it was 7.9 µM; in test [6], 2.42 µM. Moreover, the TGI in test [7] came out at 7.55 µM; in test [8], 1.21 µM; in test [9] it was 4.55 µM; in test [10], 0.818 µM.

`CCN1CCC(CC(=O)Nc2n[nH]c3nnc(-c4cccc(F)c4F)cc23)CC1`: the GI50 in [1], in test [2], in [3], in test [4], in [5] and in test [6] was over 25 µM throughout. The GI50 in [7] was over 25 µM; in test [8], 5.56 µM; in [9], 16.9 µM; in test [10], over 25 µM. The TGI in test [1], in test [2], in test [3], in test [4], in test [5] and in test [6] was over 25 µM throughout. Also, the TGI in test [7], in [8], in test [9] and in test [10] was over 25 µM throughout.

Take `C/C(CCC(=O)O)=N/Nc1ccc([N+](=O)[O-])cc1`: the GI50 in [1] is 2.19 µM; in [2] it was over 100 µM; in test [3], 28.5 µM; in test [4], over 100 µM; in test [5], over 100 µM; in test [6] it was 1.84 µM. In addition, the GI50 is 4.44 µM in test [7], over 100 µM in [8], 66.3 µM in test [9] and 3.27 µM in [10]. Moreover, the TGI in test [1], in [2], in test [3], in test [4], in [5] and in [6] was over 100 µM throughout. Moreover, the TGI in test [7], in [8], in test [9] and in [10] was over 100 µM each time.

As to `CN(C)C1CCN(Cc2ccc(NC(=O)c3cncc(C#Cc4cnc(N)c5ncccc45)c3)cc2C(F)(F)F)CC1`, the GI50 in test [1] was 0.828 µM; in test [2], 0.904 µM; in [3], 8.46 µM; in test [4], 9.34 µM; in [5], 2.77 µM; in test [6], 8.01 µM. In addition, the GI50 in [7] was 1.23 µM; in [8] it was 1.9 µM; in [9], 8.02 µM; in [10], 0.999 µM. Moreover, the TGI in [1] worked out at 1.51 µM; in [2], 1.72 µM; in test [3], 18.7 µM; in [4] it was 26.4 µM; in test [5], 11.3 µM; in test [6], 20 µM. Further, the TGI came to 2.7 µM in [7], 7.67 µM in test [8], 19.8 µM in test [9] and 1.78 µM in test [10].

The record behind these values is PubChem BioAssay (NCI).
